Reference: patent US20060008891A1, “Cathepsin G-related peptides as modulators of formylpeptide receptors (FPR)” (The Government of USA as repersented by the Secretary, …, priority 2004, published 2006)

What was measured:
[1] = test system: monocytes; assay: Chemotaxis assay, monocytes; type: cell-based, human; settings: pre-incubation fMLF 100 nM or MMK-1 5 μM, 37° C. 30 min, washing; CaG 10 μg/ml
Description: Human PBMC were isolated from leukopacks obtained through the courtesy of Transfusion Medicine Department, National Institutes of Health Clinical Center (Bethesda, Md.) by Ficoll-Hypaque density gradient centrifugation. Monocytes were purified from human PBMC by Percoll gradient to yield>90% pure preparations. […] H. Ali and R. Snyderman, Duke University (Durham, N.C.) and maintained in the presence of 0.8 mg/ml geneticin (G418, Life Technologies, Rockville, Md.) in DMEM supplemented with 10% FCS. B. Chemotaxis assay Migration of phagocytes and ETFR cells was assessed using a 48-well microchemotaxis chamber (Neuroprobe, Cabin John, Md.) as previously described (Hu et al. (2001) J Leukoc Biol 70 15512). Briefly, different concentrations of stimulants were placed in the wells of the lower compartment of the chamber, and 50 μl cells (1.5×10^6 cells/ml for monocyte and neutrophil, 1×10^6 ETFR cells/ml) were added to the wells of the upper compartment. The lower and upper compartments were separated by either a 5-μm (for monocyte) or a 10-μm pore size, collagen-coated (for ETFR cells) polycarbonate filter (Osmonics, Livermore, Calif.). After incubation at 37° C. in humidified air with 5% CO2 (60 min for neutrophils, 90 min for monocytes, 4.5 h for ETFR cells), the filter was removed and stained, and the cells migrating across the filter were counted with light microscopy. The results are presented as the mean number of cells (±SD) in three high power fields (HPFs). […] After thorough washing with cold medium (RPMI 1640, 1% BSA), the cells were resuspended and assayed. To measure the effect of various signaling inhibitors, unless otherwise indicated, the cells were pre-incubated at 37° C. for 60 min with the inhibitors, and were then added to the upper wells of the chemotaxis chamber.

[2] = test system: parental RBL cells; assay: Chemotaxis assay, parental RBL cells; type: cell-based, rat; settings: parental RBL cells without FPR
Description: Human PBMC were isolated from leukopacks obtained through the courtesy of Transfusion Medicine Department, National Institutes of Health Clinical Center (Bethesda, Md.) by Ficoll-Hypaque density gradient centrifugation. Monocytes were purified from human PBMC by Percoll gradient to yield>90% pure preparations. […] H. Ali and R. Snyderman, Duke University (Durham, N.C.) and maintained in the presence of 0.8 mg/ml geneticin (G418, Life Technologies, Rockville, Md.) in DMEM supplemented with 10% FCS. B. Chemotaxis assay Migration of phagocytes and ETFR cells was assessed using a 48-well microchemotaxis chamber (Neuroprobe, Cabin John, Md.) as previously described (Hu et al. (2001) J Leukoc Biol 70 15512). Briefly, different concentrations of stimulants were placed in the wells of the lower compartment of the chamber, and 50 μl cells (1.5×10^6 cells/ml for monocyte and neutrophil, 1×10^6 ETFR cells/ml) were added to the wells of the upper compartment. The lower and upper compartments were separated by either a 5-μm (for monocyte) or a 10-μm pore size, collagen-coated (for ETFR cells) polycarbonate filter (Osmonics, Livermore, Calif.). After incubation at 37° C. in humidified air with 5% CO2 (60 min for neutrophils, 90 min for monocytes, 4.5 h for ETFR cells), the filter was removed and stained, and the cells migrating across the filter were counted with light microscopy. […]

[3] = test system: ERK1/2; assay: Phosphorylation of ERK1/2 in ETFR cells (Western blot); type: cell-based, rat; settings: ETFR cells; fMLF at 100 nM
Description: ETFR cells were plated in Petri dishes and cultured in DMEM at 37° C. in humidified 5% CO2 atmosphere for 48 h. After further culture in serum-free DMEM overnight, the cells were treated with stimulants for indicated time periods. The reaction was stopped by adding 1 ml ice-cold PBS, and the cells were lysed in 1×SDS lysis buffer (62.5 mM Tris-HCl, 2% w/v SDS, 10% glycerol, 50 mM DTT, pH 6.8) and harvested into tubes for sonication. Proteins (50 μg for each sample) were resolved by SDS-PAGE and transferred onto nitrocellulose membranes (Bio-Rad, Hercules, Calif.). The membranes were blocked for 2 h at room temperature in 3% non-fat milk prepared in Tris-buffered saline-T (10 mM Tris-HCl, pH 7.5, 150 mM NaCl, 0.1% Tween 20) and probed with anti-p-ERK1/2, p-p38 MAPK, or p-Akt (1:1000) at room temperature for 1-2 h or at 4° C. overnight. The membranes were then washed and incubated with horseradish peroxidase-conjugated secondary antibodies diluted in Tris-buffered saline-T for 1 h at room temperature. The immune complexes on the membranes were visualized using ECL reagents. Total ERK1/2, p38 MAPK, and Akt were visualized by stripping the same membrane and probing with antibodies against total ERK1/2, p38 MAPK, and Akt.

[4] = test system: PKCζ; assay: PKCζ translocation in ETFR cells (confocal microscopy); type: cell-based, rat; settings: 100 nM fMLF, 10 μg/ml CaG or PMA 500 nM, 37° C. 10 min
Description: (§1) ETFR cells were seeded on coverslips and cultured overnight in DMEM containing 1% FCS at 37° C. After further culture in FCS-free DMEM for 3 h, cells were treated with stimulants for indicated time periods at 37° C. and were then fixed in 4% paraformaldehyde for 5 min at room temperature. The cells were permeabilized with 0.2% Tween 20 for 30 min at 4° C. and the reaction was blocked with 5% goat normal serum for 15 min at room temperature. The rabbit anti-PKCα/β, δ, and ξ, antibodies (1:1000 in DPBS) were applied separately for 1 h at room temperature. After three rinses with DPBS, the cells were stained with FITC-labeled goat anti-rabbit secondary antibody (PharMingen, 1:1000 in DPBS) for 1 h at room temperature. The coverslips were mounted with an anti-fade, water-based mounting medium with Propidium Iodide (PI) (Vector Lab, Burlingamem, Calif.) and analyzed under a laser scanning confocal fluorescence microscope (Zeiss LSM510 NLO Meta, Jena, Germany). Excitation wavelengths 488 (for FITC) and 568 (for PI) nm were used to generate fluorescence emission in green and red, respectively.

[5] = test system: PKCα/β; assay: PKCα/β translocation in ETFR cells; type: cell-based, rat; settings: 100 nM fMLF, 10 μg/ml CaG or PMA 500 nM, 37° C. 10 min
Description: as §1

[6] = test system: PKCδ; assay: PKCδ translocation in ETFR cells; type: cell-based, rat; settings: 100 nM fMLF, 10 μg/ml CaG or PMA 500 nM, 37° C. 10 min
Description: as §1, with “The cells were permeabilized with 0.2% Tween 20 for 30 min at 4° C. and the reaction was blocked with 5% goat normal serum for 15 min at room temperature.” left out, “Germany).” for “Germany). Excitation wavelengths 488 (for FITC) and 568 (for PI) nm were used to generate fluorescence emission in green and red, respectively.”

[7] = test system: PKC isozymes; assay: PKC translocation in parental RBL cells; type: cell-based, rat; settings: 100 nM fMLF, 10 μg/ml CaG or PMA 500 nM, 37° C. 10 min
[8] = molecular target: epitope-tagged human FPR stably expressed on rat basophilic leukemia (RBL) cells (ETFR cells) (human) (UniProt P21462); assay: displacement of 3 nM ^3[H]-fMLF from ETFR cells, filter binding
[9] = molecular target: human formylpeptide receptor (FPR), native or wild type, on cells (human) (UniProt P21462); assay: displacement of 3 nM ^3[H]-fMLF from human monocytes, filter binding
[10] = molecular target: T1, epitope-tagged human FPR stably expressed on rat basophilic leukemia (RBL) cells (ETFR cells), P21462
T1 chain: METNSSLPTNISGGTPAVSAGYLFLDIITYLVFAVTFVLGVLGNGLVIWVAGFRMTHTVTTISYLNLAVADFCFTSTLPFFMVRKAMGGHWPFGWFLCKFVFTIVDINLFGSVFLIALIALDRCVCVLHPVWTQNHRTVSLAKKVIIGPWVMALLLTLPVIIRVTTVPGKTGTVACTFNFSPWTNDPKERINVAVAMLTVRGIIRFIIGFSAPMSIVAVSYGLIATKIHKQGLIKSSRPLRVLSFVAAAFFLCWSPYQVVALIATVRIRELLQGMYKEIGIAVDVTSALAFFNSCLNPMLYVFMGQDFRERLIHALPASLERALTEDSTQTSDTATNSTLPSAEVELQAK

[11] = molecular target: T2, human formylpeptide receptor (FPR), native or wild type, on cells, P21462
T2 chain: T1 chain

[12] = molecular target: T3, epitope-tagged human FPR stably expressed on rat basophilic leukemia (RBL) cells (ETFR cells) (human, UniProt P21462 1-350); assay: displacement of 3 nM ^3[H]-fMLF from ETFR cells by unlabeled CaG, filter binding
T3 construct: whole, on cells; also called RBL cells transfected with FPR; not shown: neither its identity nor its position on FPR is stated
T3 sequence (looked up): T1 chain

[13] = molecular target: T4, human formylpeptide receptor (FPR), native or wild type, on cells (human, UniProt P21462 1-350); assay: displacement of 3 nM ^3[H]-fMLF from human monocytes by unlabeled CaG, filter binding
T4 construct: whole, on cells; Used for assays on human monocytes and neutrophils (endogenous FPR) and on HEK293 cells transfected with wild type FPR
T4 sequence (looked up): T1 chain
Description: The cells were then filtered onto Whatman paper discs, which were air-dried and measured for Remission.

[14] = molecular target: T3, epitope-tagged human FPR stably …; assay: binding of ^125I-CaG (25 nM) to ETFR cells with increasing unlabeled ligand, analysed with the LIGAND program
Description: After incubation and rotation at room temperature for 1 h, the cells were pelleted through a 10% sucrose/PBS cushion for 1 min at 10,000 g. The supernatant was removed and the radioactivity associated with cell pellets was measured in a γ counter (CliniGamma, Pharmacia Biotech Inc.). The binding data were analyzed with a Macintosh computer-aided program LIGAND (Dr. P. Munson, Division of Computer Research and Technology, NIH, Bethesda, Md.).

Q: `CSCC[C@H](NC=O)C(=O)N[C@@H](CC(C)C)C(=O)N[C@@H](Cc1ccccc1)C(=O)O` [fMLF, formyl-methionyl-leucyl-phyenyalanine] was tested. Which “attenuation of monocyte chemotaxis to CaG after pre-incubation with agonist” value [1] did it give?
A: attenuated monocyte response to CaG

Q: What about the “migration of parental RBL cells” value [2] of the same molecule?
A: Neither CaG nor fMLF induced migration of parental RBL cells

Q: And the “time of maximal effect on p-ERK” value [3]?
A: 1 min

Q: What about the “translocation of PKCζ” value [4] of the same molecule?
A: promoted the translocation of not only PKCξ, but also PKCα/β

Q: What about the “translocation of PKCα/β” value [5] of the same molecule?
A: promoted the translocation of not only PKCξ, but also PKCα/β

Q: And the “translocation of PKCδ” value [6]?
A: did not induce translocation of PKCδ

Q: And the “PKC translocation in parental RBL cells” value [7]?
A: Neither CaG nor fMLF stimulated PKC translocation in parental RBL cells

Q: For “synthetic N-formyl peptide fMLF (formyl-methionyl-leucyl-phenylalanine)”, which IC50 [8] is on record?
A: 3 nM

Q: And the IC50 [9]?
A: 3 nM

B1: Cathepsin G (CaG), purified from neutrophil granules (protein)
chain: IIGGRESRPHSRPYMAYLQIQSPAGQSRCGGFLVREDFVLTAAHCWGSNINVTLGAHNIQRRENTQQHITARRAIRHPQYNQRTIQNDIMLLQLSRRVRRNRNVNPVALPRAQEGLRPGTLCTVAGWGRVSMRRGTDTLREVQLRVQRDRQCLRIFGSYDPRRQICVGDRRERKAAFKGDSGGPLLCNNVAHGIVSYGKSSGVPPEVFTRVSSFLPWIRTTMRS
Q: For B1, which “phosphorylation of ERK1/2, p38 MAPK and Akt (Western blot)” value [10] is on record?
A: CaG also positively and rapidly (within 1-5 min) activated ERK1/2 (FIG. 5 A), p38 MAPK (FIG. 5 C), and Akt (FIG. 5 D)

Q: And the “monocyte migration (chemotaxis), concentration of maximal activity” value [11]?
A: CaG dose-dependently induced monocyte migration (FIG. 1A), which reached maximal activity at a concentration of 5 µg/ml of the protein (200 nM)

B2: Cathepsin G (CaG), purified from neutrophil granules (enzyme)
chain: B1 chain
modifications: iodinated (^125I, chloramine-T method) in the direct binding assay only
Q: Which IC50 [12] does the source give for B2 here?
A: 100 nM

Q: And the IC50 [13]?
A: 100 nM

Q: What about the Kd [14] of the same molecule?
A: 85 nM
